Source: patent US20130116219A1, “ANTIMICROBIAL CARBOLINE COMPOUNDS” (ALCON RESEARCH, LTD., priority 2011, published 2013)

Test system: Ad5
Experiment: Ad5 genome replication assay (cell-based QPCR) in A549 cells
Conditions: Human adenovirus sp., A549, 72 h, read-out: Ad5 qPCR EC50 (μM)
Protocol: Compounds of the present invention were tested for potency against Ad5 in an Ad5 genome replication assay, a cell-based QPCR assay of Ad5 genome replication in A549 cells, a human lung carcinoma cell line. Serotype of human Ad5, used in this replication assay can also replicate in a NZW rabbit model of adenoviral ocular keratitis.
EC50 values (μM) for inhibition of adenoviral replication were determined by QPCR. Briefly, 10,000 cultured A549 cells were inoculated with 25,000 pfu/well for 3 hrs in 2% FBS F12-K A549 culture media. Following inoculation, A549 cells were treated with log unit dilutions of compound of Formula I (˜10 μM thru˜10 pM) in 10% FBS F12-K culture media with 0.3% DMSO for an additional 3 days. Cell viability was assessed with Alamar Blue (10 μl/well for 2 hrs; fluorescence Ex353; Em595 nm). Plates were washed 3 times with 125 μl PBS, cell lysates were prepared for QPCR analysis using Cells to SNP kit (Life Technologies). Ad5 genome levels per cell were determined with RNaseP and Ad5 hexon Taqman Assays (Life Technologies). EC50, the concentration that inhibited Ad5 genome replication formation by 50%, was estimated from plots of Ad5 genomes/cell vs. compound concentration.

| Structure (SMILES) | EC50 |
| --- | --- |
| CC(C)CC1c2[nH]c3ccc(Cl)cc3c2CCN1C(=O)OCCN1CCC(C(F)(F)F)C1 (stereo not shown) [Compound 17] | 0.1 to 1 µM |
| CC(C)CC1c2[nH]c3ccc(Cl)cc3c2CCN1C(=O)C1CCN(c2ncccn2)CC1 (stereo not shown) [Compound 67] | 0.1 to 1 µM |
| CC(C)CC1c2[nH]c3ccc(Cl)cc3c2CCN1C(=O)CNCCN1CCC(F)(F)CC1 (stereo not shown) [Compound 86] | > 1 µM |
| CC(C)CC1c2[nH]c3ccc(Cl)cc3c2CCN1C(=O)CCCN1CCC(F)(F)CC1 (stereo not shown) [Compound 12] | > 1 µM |
| CC(C)C[C@H]1c2[nH]c3ccc(Cl)cc3c2CCN1C(=O)CCN1CCC(C(F)(F)F)CC1 [Compound 20, (S)-1-(6-chloro-1-isobutyl-3,4-dihydro-1H-pyrido[3,4-b]indol-2(9H)-yl)-3-(4-(trifluoromethyl)piperidin-1-yl)propan-1-one] | 0.1 to 1 µM |
| CC(C)CC1c2[nH]c3ccc(Cl)cc3c2CCN1C(=O)OCCN1CCC(C(F)F)CC1 (stereo not shown) [Compound 22] | > 1 µM |
| CC(C)CC1c2[nH]c3ccc(Cl)cc3c2CCN1C(=O)C1(F)CN(CC(C)C)C1 (stereo not shown) [Compound 103, (6-chloro-1-isobutyl-3,4-dihydro-1H-pyrido[3,4-b]indol-2(9H)-yl)(3-fluoro-1-isobutylazetidin-3-yl)methanone] | < 0.1 µM |
| CC(C)CC1c2[nH]c3ccc(Cl)cc3c2CCN1C(=O)OCCN1CC(F)C1 (stereo not shown) [Compound 21] | > 1 µM |
| CC(C)CC1c2[nH]c3ccc(Cl)cc3c2CCN1C(=O)CCN1CCCCC12CC2 (stereo not shown) [Compound 44] | 0.1 to 1 µM |
| CC(C)CC1c2[nH]c3ccc(Br)cc3c2CCN1C(=O)CCN1CCC(F)(F)CC1 (stereo not shown) [Compound 45] | < 0.1 µM |
| CC(C)CC1c2[nH]c3ccc(Cl)cc3c2CCN1C(=O)C(C)(C)CN1CCC(F)(F)CC1 (stereo not shown) [Compound 33] | > 1 µM |
| CC(C)C[C@H]1c2[nH]c3ccc(Br)cc3c2CCN1C(=O)CCN1CC[C@H](F)C1 [Compound 105] | 0.1 to 1 µM |
| CC(C)CC1c2[nH]c3ccc(Cl)cc3c2CCN1C(=O)CNc1ccccc1 (stereo not shown) [Compound 70] | < 0.1 µM |
| CC(C)CC1c2[nH]c3ccc(Cl)cc3c2CCN1CCN1CC[C@H](F)C1 (stereo partly shown) [Compound 101] | > 1 µM |
| CC(C)CC1c2[nH]c3ccc(Cl)cc3c2CCN1S(=O)(=O)CCN1CCC(F)(F)CC1 (stereo not shown) [Compound 36] | > 1 µM |
| CC(C)(C)CC1c2[nH]c3ccc(Cl)cc3c2CCN1C(=O)CCN1CCC(C(F)F)CC1 (stereo not shown) [Compound 32] | > 1 µM |
| CC(C)CC1c2[nH]c3ccc(Cl)cc3c2CCN1C(=O)CNC1CCCCC1 (stereo not shown) [Compound 40] | > 1 µM |
| CC(C)CC1c2[nH]c3ccc(Cl)cc3c2CCN1C(=O)COC1CCCCC1 (stereo not shown) [Compound 68] | 0.1 to 1 µM |
| CC(C)CC1c2[nH]c3ccc(Cl)cc3c2CCN1C(=O)C1(C#N)CC1 (stereo not shown) [Compound 25] | > 1 µM |
| CC(C)CC1c2[nH]c3ccc(Cl)cc3c2CCN1CC1CC1 (stereo not shown) [Compound 96] | 0.1 to 1 µM |
| CC(C)CC1c2[nH]c3ccc(Cl)cc3c2CCN1C(=O)OCCN1CCC(F)(F)CC1 (stereo not shown) [Compound 14] | 0.1 to 1 µM |
| CC(C)C[C@H]1c2[nH]c3ccc(Cl)cc3c2CCN1C(=O)CNC1CCC(F)(F)CC1 [Compound 94, (S)-1-(6-chloro-1-isobutyl-3,4-dihydro-1H-pyrido[3,4-b]indol-2(9H)-yl)-2-((4,4-difluorocyclohexyl)amino)ethanone] | < 0.1 µM |
| CC(C)CC1c2[nH]c3ccc(Cl)cc3c2CCN1C(=O)C1CN(CC2CC2(F)F)C1 (stereo not shown) [Compound 107] | > 1 µM |

| Structure (SMILES) | EC50 |
| --- | --- |
| CC(C)CC1c2[nH]c3ccc(Cl)cc3c2CCN1C(=O)COC1CCN(CC(F)F)CC1 (stereo not shown) [Compound 53] | > 1 µM |
| CC(C)C[C@H]1c2[nH]c3ccc(Cl)cc3c2CCN1C(=O)CCNC1CCC(F)(F)CC1 [Compound 34] | > 1 µM |
| CC(C)CC1c2[nH]c3ccc(Cl)cc3c2CCN1C(=O)CC1CCN(C2CC2)CC1 (stereo not shown) [Compound 75] | 0.1 to 1 µM |
| CC(C)CC1c2[nH]c3ccc(Cl)cc3c2CCN1C(=O)OCCN1CCC(F)(F)C1 (stereo not shown) [Compound 18] | 0.1 to 1 µM |
| CC(C)CC1c2[nH]c3ccc(Cl)cc3c2CCN1C(=O)CN(C)c1ccccc1 (stereo not shown) [Compound 74] | 0.1 to 1 µM |
| CC(C)CC1c2[nH]c3ccc(Cl)cc3c2CCN1C(=O)COC1CCN(C2CC2)CC1 (stereo not shown) [Compound 69] | > 1 µM |
| CC(C)CC1c2[nH]c3ccc(Cl)cc3c2CCN1c1nc(CN2CCC(F)CC2)co1 (stereo not shown) [Compound 57] | 0.1 to 1 µM |
| CC(C)CC1c2[nH]c3ccc(Cl)cc3c2CCN1C(=O)CCN1CCOCC1 (stereo not shown) [Compound 2] | > 1 µM |
| CC(C)CC1c2[nH]c3ccc(Cl)cc3c2CCN1c1nc(CN2CCC(F)(F)CC2)co1 (stereo not shown) [Compound 56] | 0.1 to 1 µM |
| CC(C)CC1c2[nH]c3ccc(Cl)cc3c2CCN1C(=O)CN1CCC(F)(F)C1 (stereo not shown) [Compound 84] | 0.1 to 1 µM |
| CC(C)CC1c2[nH]c3ccc(Cl)cc3c2CCN1C1CC1 (stereo not shown) [Compound 95] | < 0.1 µM |
| CC(C)CC1c2[nH]c3ccc(Cl)cc3c2CCN1C(=O)CN1CC(F)C1 (stereo not shown) [Compound 41] | 0.1 to 1 µM |
| CC(C)CC1c2[nH]c3ccc(Cl)cc3c2CCN1C(=O)C(C)CN1CCC(F)(F)CC1 (stereo not shown) [Compound 37] | 0.1 to 1 µM |
| CC(C)CC1c2[nH]c3ccc(Cl)cc3c2CCN1C(=O)C1CN(c2ncccn2)C1 (stereo not shown) [Compound 81] | 0.1 to 1 µM |
| CC(C)CC1c2[nH]c3ccc(Cl)cc3c2CCN1C(=O)CCN1CCC(F)(F)C1 (stereo not shown) [Compound 11] | 0.1 to 1 µM |
| CC(C)CC1c2[nH]c3ccc(Cl)cc3c2CCN1CCCc1ccccc1 (stereo not shown) [Compound 109] | 0.1 to 1 µM |
| CC(C)CC1c2[nH]c3ccc(Cl)cc3c2CCN1C(=O)OCCN1CCC(CF)CC1 (stereo not shown) [Compound 24] | > 1 µM |
| CC(C)C[C@H]1c2[nH]c3ccc(Cl)cc3c2CCN1C(=O)OCCN1CC[C@H](F)C1 [Compound 38] | 0.1 to 1 µM |
| CC(C)CC1c2[nH]c3ccc(Cl)cc3c2CCN1C(=O)c1ccco1 (stereo not shown) [Compound 66] | > 1 µM |
| CC(C)CC1c2[nH]c3ccc(Cl)cc3c2CCN1C(=O)OCCN1CCC(F)CC1 (stereo not shown) [Compound 23] | > 1 µM |
| CC(C)CC1c2[nH]c3ccc(Cl)cc3c2CCN1C(=O)c1cccnc1 (stereo not shown) [Compound 64] | 0.1 to 1 µM |
| CC(C)CC1c2[nH]c3ccc(Cl)cc3c2CCN1C(=O)CCc1ccc(O)cc1 (stereo not shown) [Compound 72] | > 1 µM |
| CC(C)CC1c2[nH]c3ccc(Cl)cc3c2CCN1C(=O)CCN1CCCCC1 (stereo not shown) [Compound 3] | > 1 µM |

| Structure (SMILES) | EC50 |
| --- | --- |
| CC(C)C[C@H]1c2[nH]c3ccc(Cl)cc3c2CCN1C(=O)CC1CCN(CC(F)F)CC1 [Compound 100] | < 0.1 µM |
| CC(C)C[C@H]1c2[nH]c3ccc(Cl)cc3c2CCN1C(=O)CNCCC(F)(F)F [Compound 108, (S)-1-(6-chloro-1-isobutyl-3,4-dihydro-1H-pyrido[3,4-b]indol-2(9H)-yl)-2-(3,3,3-trifluoropropylamino)ethanone] | < 0.1 µM |
| CC(C)CC1c2[nH]c3ccc(Cl)cc3c2CCN1C(=O)COc1ccccc1 (stereo not shown) [Compound 71] | 0.1 to 1 µM |
| O=C(CCN1CCC(F)CC1)N1CCc2c([nH]c3ccc(Cl)cc23)C1CC1CCCC1 (stereo not shown) [Compound 27] | 0.1 to 1 µM |
| CC(C)C[C@H]1c2[nH]c3ccc(Cl)cc3c2CCN1C(=O)CCN1CCC(C(F)F)CC1 [Compound 29, (S)-1-(6-chloro-1-isobutyl-3,4-dihydro-1H-pyrido[3,4-b]indol-2(9H)-yl)-3-(4-(difluoromethyl)piperidin-1-yl)propan-1-one] | 0.1 to 1 µM |
| CC(C)CC1c2[nH]c3ccc(Cl)cc3c2CCN1Cc1ccccn1 (stereo not shown) [Compound 87] | 0.1 to 1 µM |
| CC(C)CC1c2[nH]c3ccc(Cl)cc3c2CCN1C(=O)CCN1CCCC(F)(F)C1 (stereo not shown) [Compound 13] | 0.1 to 1 µM |
| CC(C)CC1c2[nH]c3ccc(Cl)cc3c2CCN1C(=O)CCC1CCN(CC(F)F)CC1 (stereo not shown) [Compound 46] | 0.1 to 1 µM |
| CC(C)CC1c2[nH]c3ccc(Cl)cc3c2CCN1C(=O)CN1CC(F)(F)C1 (stereo not shown) [Compound 85, 1-(6-chloro-1-isobutyl-3,4-dihydro-1H-pyrido[3,4-b]indol-2(9H)-yl)-2-(3,3-difluoroazetidin-1-yl)ethanone] | < 0.1 µM |
| CC(C)CC1c2[nH]c3ccc(Cl)cc3c2CCN1C(=O)C1(F)CNC1 (stereo not shown) [Compound 102] | 0.1 to 1 µM |
| CC(C)(C)CC1c2[nH]c3ccc(Cl)cc3c2CCN1C(=O)CCN1CCC(F)CC1 (stereo not shown) [Compound 30] | > 1 µM |
| CC(C)CC1c2[nH]c3ccc(Cl)cc3c2CCN1C(=O)CCN1CCC(C)CC1 (stereo not shown) [Compound 15] | > 1 µM |
| O=C(CCN1CCC(F)(F)CC1)N1CCc2c([nH]c3ccc(Cl)cc23)C1CC1CCCC1 (stereo not shown) [Compound 9] | 0.1 to 1 µM |
| CC(C)CC1c2[nH]c3ccc(Cl)cc3c2CCN1C(=O)CN1CCC(C(F)(F)F)CC1 (stereo not shown) [Compound 8] | 0.1 to 1 µM |
| CC(C)CC1c2[nH]c3ccc(Cl)cc3c2CCN1C(=O)Cc1ccncc1 (stereo not shown) [Compound 61] | > 1 µM |
| CC(C)CC1c2[nH]c3ccc(Cl)cc3c2CCN1C(=O)CCN1CCSCC1 (stereo not shown) [Compound 19] | 0.1 to 1 µM |
| CC(C)CC1c2[nH]c3ccc(Cl)cc3c2CCN1C(=O)c1ccccn1 (stereo not shown) [Compound 52] | 0.1 to 1 µM |
| CC(C)C[C@H]1c2[nH]c3ccc(Cl)cc3c2CCN1C(=O)C1CCN(CC(F)F)CC1 [Compound 83] | 0.1 to 1 µM |
| CC(C)CC1c2[nH]c3ccc(Cl)cc3c2CCN1C(=O)[C@@H](N)Cc1ccccc1 (stereo partly shown) [Compound 76] | > 1 µM |
| Cc1ccc(C2c3[nH]c4ccc(Cl)cc4c3CCN2C(=O)CCN2CCC(F)(F)CC2)cc1 (stereo not shown) [Compound 4] | 0.1 to 1 µM |
| CC(C)CC1c2[nH]c3ccc(Cl)cc3c2CCN1C(=O)CC1CCCO1 (stereo not shown) [Compound 42] | 0.1 to 1 µM |
